In US6358987B1, “Metalloproteinase inhibitors” (British Biotech Pharmaceuticals Limited, priority 1997, dated 2002):

Row | Structure (SMILES) | melting point
1 | CC(C)C[C@@H](C(=O)N[C@H](C(=O)N(C)C)C(C)(C)C)[C@H](CN(C)S(C)(=O)=O)C(=O)NO [Example 1] | 216 to 218 °C
2 | COCCOCCNC(=O)[C@@H](NC(=O)[C@H](CC(C)C)[C@H](CN(C)S(C)(=O)=O)C(=O)NO)C(C)(C)C [Example 2, N^1-Hydroxy-3R-isobutyl-2R-[(methanesulfonyl-methyl-amino)-methyl]-N^4-{1S-[2-(2-methoxy-ethoxy)-ethyl-carbamoyl]-2,2-dimethyl-propyl}-succinamide] | 192 to 193 °C
3 | CC(C)C[C@@H](C(=O)N[C@H](CO)Cc1ccccc1)[C@H](CN(C)S(C)(=O)=O)C(=O)NO [Example 3, N^4-(1S-Benzyl-2-hydroxy-ethyl)-N^1-hydroxy-3R-isobutyl-2R-[(methanesulfonyl-methyl-amino)-methyl]-succinamide] | 200 to 202 °C
4 | CC(C)C[C@@H](C(=O)N[C@H](CO)C(C)(C)C)[C@H](CN(C)S(C)(=O)=O)C(=O)NO [Example 4, N^1-Hydroxy-N^4-(1S-hydroxymethyl-2,2-dimethylpropyl)-3R-isobutyl-2R-[(methanesulfonyl-methyl-amino)-methyl]-succinamide] | 167 to 169 °C
5 | CC(C)C[C@@H](C(=O)N[C@H](CO)Cc1c[nH]cn1)[C@H](CN(C)S(C)(=O)=O)C(=O)NO [Example 5, N^1-Hydroxy-N^4-[2-hydroxy-1S-(1H-imidazol-4-ylmethyl)-ethyl]-3R-isobutyl-2S-[(methanesulfonyl-methyl-amino)-methyl]-succinamide] | 219 to 221 °C

Second part, the molecule after the results:

Row | melting point | Structure (SMILES)
6 | 125 to 128 °C | CC(C)C[C@@H](C(=O)N[C@H](CO)Cc1ccc(O)cc1)[C@H](CN(C)S(C)(=O)=O)C(=O)NO [Example 6, N^1-Hydroxy-N^4-[2-hydroxy-1S-(4-hydroxy-benzyl)-ethyl]-3R-isobutyl-2S-[(methanesulfonyl-methyl-amino)-methyl]-succinamide]
7 | 217 to 222 °C | COc1ccc(S(=O)(=O)N(C)C[C@H](C(=O)NO)[C@@H](CC(C)C)C(=O)N[C@H](C(=O)N(C)C)C(C)(C)C)cc1 [Example 7, N^4-(1S-Dimethylcarbamoyl-2,2-dimethyl-propyl)-N^1-hydroxy-3R-isobutyl-2S-{[(4-methoxy-benzenesulfonyl)-methyl-amino]-methyl}-succinamide]
8 | 196 to 203 °C | COc1ccc(S(=O)(=O)N(C)C[C@H](C(=O)NO)[C@@H](CC(C)C)C(=O)N[C@H](CO)Cc2ccccc2)cc1 [Example 8, N^4-(1S-Benzyl-2-hydroxy-ethyl)-N^1-hydroxy-3R-isobutyl-2S-{[(4-methoxy-benzenesulfonyl)-methyl-amino]-methyl}-succinamide]
9 | 208 to 209 °C | COc1ccc(S(=O)(=O)N(C)C[C@H](C(=O)NO)[C@@H](CC(C)C)C(=O)N[C@H](CO)Cc2c[nH]cn2)cc1 [Example 9]
10 | 181 to 184 °C | COc1ccc(S(=O)(=O)N(C)C[C@H](C(=O)NO)[C@@H](CC2CCCC2)C(=O)N[C@H](CO)C(C)(C)C)cc1 [Example 10, 3R-Cyclopentylmethyl-N^1-hydroxy-N^4-(1S-hydroxymethyl-2,2-dimethyl-propyl)-2S-{[(4-methoxy-benzenesulfonyl)-methyl-amino]-methyl}-succinamide]
11 | 201 to 207 °C | CN(C[C@H](C(=O)NO)[C@@H](CCCc1ccc(-c2ccccc2)cc1)C(=O)N[C@H](CO)Cc1ccccc1)S(C)(=O)=O [Example 12, N^4-(1S-Benzyl-2-hydroxy-ethyl)-3R-(3-biphenyl-4-yl-propyl)-N^1-hydroxy-2S-[(methanesulfonyl-methyl-amino)-methyl]-succinamide]
12 | 226 to 228 °C | COc1ccc(S(=O)(=O)N(C)C[C@H](C(=O)NO)[C@@H](CCCc2ccc(-c3ccccc3)cc2)C(=O)N[C@H](CO)C(C)(C)C)cc1 [Example 13, 3R-(3-Biphenyl4-yl-propyl)-N^1-hydroxy-N^4-(1S-hydroxymethyl-2,2-dimethyl-propyl)-2S-{[(4-methoxy-benzenesulfonyl)-methyl-amino]-methyl}-succinamide]
13 | 245 to 247 °C | COc1ccc(S(=O)(=O)N(C)C[C@H](C(=O)NO)[C@@H](CCCc2ccc(-c3ccccc3)cc2)C(=O)N[C@H](CO)Cc2ccccc2)cc1 [Example 14, N^4-(1S-Benzyl-2-hydroxy-ethyl)-3R-(3-biphenyl-4-yl-propyl)-N^1-hydroxy-2S-{[(4-methoxy-benzenesulfonyl)-methyl-amino]-methyl}-succinamide]
